PubChem BioAssay AID248 (DTP/NCI, 2004)
Where “and” joins values, the source holds several entries; their conditions need not be identical. Equal values may be shown once. Toxic doses and inconclusive results are not listed. Cut-off read from the data, not from the text of the source: active = T/C of 150% or more; inactive = T/C below 125%.

Test system: L1210 leukemia ip in BDF1 mice, survival T/C
Assay: NCI In Vivo Anticancer Drug Screen. Data for tumor model L1210 Leukemia (intraperitoneal) in B6D2F1 (BDF1) mice
Settings: endpoint: mean survival time, higher = longer survival
Outline: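 Antitumor effect is assessed in tumor-bearing animals. Survival in the compound arm is compared with a vehicle-dosed control arm and expressed as their quotient.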

[1] = dose: 100.0 mg/kg/injection, schedule: Q01DX009 (ip), vehicle: saline with Tween-80
[2] = dose: 200.0 mg/kg/injection, schedule: Q01DX009 (ip), vehicle: saline with Tween-80
[3] = dose: 400.0 mg/kg/injection, schedule: Q01DX009 (ip), vehicle: saline with Tween-80
[4] = dose: 100.0 mg/kg/injection, schedule: Q01DX009 (ip), vehicle: Klucel (hydroxypropylcellulose) (HPC)
[5] = dose: 100.0 mg/kg/injection, schedule: Q04DX003 (ip), vehicle: Klucel (hydroxypropylcellulose) (HPC)
[6] = dose: 200.0 mg/kg/injection, schedule: Q01DX009 (ip), vehicle: Klucel (hydroxypropylcellulose) (HPC)
[7] = dose: 200.0 mg/kg/injection, schedule: Q04DX003 (ip), vehicle: Klucel (hydroxypropylcellulose) (HPC)
[8] = dose: 400.0 mg/kg/injection, schedule: Q01DX009 (ip), vehicle: Klucel (hydroxypropylcellulose) (HPC)
[9] = dose: 400.0 mg/kg/injection, schedule: Q04DX003 (ip), vehicle: Klucel (hydroxypropylcellulose) (HPC)
[10] = dose: 100.0 mg/kg/injection, schedule: Q04DX003 (ip), vehicle: saline
[11] = dose: 200.0 mg/kg/injection, schedule: Q04DX003 (ip), vehicle: saline
[12] = dose: 400.0 mg/kg/injection, schedule: Q04DX003 (ip), vehicle: saline
[13] = dose: 100.0 mg/kg/injection, schedule: Q04DX003 (ip), vehicle: saline with Tween-80
[14] = dose: 200.0 mg/kg/injection, schedule: Q04DX003 (ip), vehicle: saline with Tween-80
[15] = dose: 400.0 mg/kg/injection, schedule: Q04DX003 (ip), vehicle: saline with Tween-80
[16] = dose: 50.0 mg/kg/injection, schedule: Q01DX009 (ip), vehicle: saline with Tween-80
[17] = dose: 100.0 mg/kg/injection, schedule: Q01DX009 (ip), vehicle: saline
[18] = dose: 200.0 mg/kg/injection, schedule: Q01DX009 (ip), vehicle: saline
[19] = dose: 400.0 mg/kg/injection, schedule: Q01DX009 (ip), vehicle: saline

Measured: T/C

COc1cc([N+](=O)[O-])ccc1NC(=O)Cc1ccccc1
inactive: [1] 111 % of control | [2] 91 % of control | [3] 96 % of control

CC(C)C1CCC(C(=O)O)CC1 (stereo not drawn)
inactive: [4] 102 % of control | [5] 96 % of control | [6] 95 % of control | [7] 100 % of control | [8] 97 % of control | [9] 103 % of control

CC1C(=O)C=C2CCCC(C)(C)C2(C)C1(O)CCc1ccoc1 (stereo not drawn)
inactive: dose: 100.0 mg/kg/injection, schedule: Q01DX001 (ip), vehicle: saline 103 % of control | dose: 200.0 mg/kg/injection, schedule: Q01DX001 (ip), vehicle: saline 97 % of control | dose: 400.0 mg/kg/injection, schedule: Q01DX001 (ip), vehicle: saline 107 % of control

CCCCOP(=O)(NNC=O)OCCCC
inactive: [10] 96 % of control | [11] 98 % of control | [12] 95 % of control

O=C(O)c1ccccc1NCc1cc(=O)[nH]c(=O)[nH]1
inactive: [13] 101 % of control | [14] 98 % of control | [15] 95 % of control

C/C=C/C1N(C)CCCN1C
inactive: dose: 25.0 mg/kg/injection, schedule: Q01DX009 (ip), vehicle: saline with Tween-80 97 % of control | dose: 25.0 mg/kg/injection, schedule: Q04DX003 (ip), vehicle: saline with Tween-80 102 % of control | [16] 98 % of control | dose: 50.0 mg/kg/injection, schedule: Q04DX003 (ip), vehicle: saline with Tween-80 93 % of control | [13] 91 % of control

CNCc1cccc2ccccc12
inactive: dose: 75.0 mg/kg/injection, schedule: Q01DX001 (ip), vehicle: carboxymethylcellulose (CMC) 101 % of control | dose: 150.0 mg/kg/injection, schedule: Q01DX001 (ip), vehicle: carboxymethylcellulose (CMC) 101 % of control | dose: 300.0 mg/kg/injection, schedule: Q01DX001 (ip), vehicle: carboxymethylcellulose (CMC) 107 % of control

O=C1C(Cl)=C(Cl)C(=O)N1c1ccc(Cl)c(Cl)c1
inactive: [1] 98 % of control | [13] 91 % of control | [2] 101 % of control | [14] 87 % of control | [15] 94 % of control

CC(=O)Oc1cc(C=O)cc(OC(C)=O)c1OC(C)=O
inactive: [1] 106 % of control | [13] 106 % of control | [2] 118 % of control | [14] 121 % of control | [3] 90 % of control | [15] 108 % of control

Cc1cn(C2CC(O)C(CN)O2)c(=O)[nH]c1=O (stereo not drawn)
inactive: dose: 100.0 mg/kg/injection, schedule: Q01DX005 (ip), vehicle: saline 96 % of control | dose: 200.0 mg/kg/injection, schedule: Q01DX005 (ip), vehicle: saline 104 % of control

COC1=C(C)C(=O)c2c(c(COC(N)=O)c3n2CC2C3N2C)C1=O (stereo not drawn)
inactive: dose: 1.0 mg/kg/injection, schedule: Q01DX009 (ip), vehicle: carboxymethylcellulose (CMC) 123 % of control | dose: 1.8 mg/kg/injection, schedule: Q01DX009 (ip), vehicle: carboxymethylcellulose (CMC) 105 % of control | dose: 1.9 mg/kg/injection, schedule: Q01DX001 (ip), vehicle: other 116 % of control and 122 % of control | dose: 2.9 mg/kg/injection, schedule: Q01DX001 (ip), vehicle: other 119 % of control | dose: 4.5 mg/kg/injection, schedule: Q01DX001 (ip), vehicle: other 122 % of control | dose: 6.7 mg/kg/injection, schedule: Q01DX001 (ip), vehicle: other 123 % of control

Nn1c(=O)[nH][nH]c1=O
inactive: [4] 113 % of control | [5] 97 % of control and 109 % of control | [6] 97 % of control | [7] 105 % of control and 91 % of control | [9] 109 % of control

CCOC(=O)c1c(N)sc(C)c1C
inactive: [5] 102 % of control | [7] 94 % of control | [9] 97 % of control

CN(CCC(=O)c1ccccc1)C(C)(C)C
inactive: [10] 100 % of control

Nc1cccc2c1C(=O)c1ccccc1-2
inactive: [1] 97 % of control | [2] 103 % of control | [3] 97 % of control

CC1(CCCOc2ccc(NC(=O)CBr)cc2)N=C(N)N=C(N)N1c1ccccc1 (stereo not drawn)
inactive: dose: 5.0 mg/kg/injection, schedule: Q01DX001 (ip), vehicle: saline 97 % of control | dose: 10.0 mg/kg/injection, schedule: Q01DX001 (ip), vehicle: saline 92 % of control | dose: 20.0 mg/kg/injection, schedule: Q01DX001 (ip), vehicle: saline 91 % of control | dose: 40.0 mg/kg/injection, schedule: Q01DX001 (ip), vehicle: saline 91 % of control | dose: 80.0 mg/kg/injection, schedule: Q01DX001 (ip), vehicle: saline 87 % of control

Cc1ccc(OC(=O)C2=C(C(=O)Oc3ccc(C)cc3)CCC2)cc1
inactive: dose: 75.0 mg/kg/injection, schedule: Q01DX001 (ip), vehicle: saline 95 % of control | dose: 150.0 mg/kg/injection, schedule: Q01DX001 (ip), vehicle: saline 97 % of control | dose: 300.0 mg/kg/injection, schedule: Q01DX001 (ip), vehicle: saline 95 % of control

C=NNC(=O)c1ccc(OC)cc1
inactive: dose: 50.0 mg/kg/injection, schedule: Q01DX001 (ip), vehicle: carboxymethylcellulose (CMC) 96 % of control | dose: 100.0 mg/kg/injection, schedule: Q01DX001 (ip), vehicle: carboxymethylcellulose (CMC) 96 % of control | dose: 200.0 mg/kg/injection, schedule: Q01DX001 (ip), vehicle: carboxymethylcellulose (CMC) 93 % of control | dose: 400.0 mg/kg/injection, schedule: Q01DX001 (ip), vehicle: carboxymethylcellulose (CMC) 93 % of control

CCCOP(=O)(OCCC)C(OC(=O)C(C)(C)SC(=S)CCC)=C(C)C
inactive: [13] 97 % of control | [14] 100 % of control | [15] 94 % of control

CCC1(O)CC2CN(CCc3c([nH]c4ccccc34)C(C(=O)OC)(c3cc4c(cc3OC)N(C)C3C(O)(C(N)=O)C(O)C5(CC)C=CCN6CCC43C65)C2)C1 (stereo not drawn) (tested in a mixture with another compound)
inactive: dose: 0.43 mg/kg/injection, schedule: Q01DX009 (ip), vehicle: saline 124 % of control | dose: 1.2 mg/kg/injection, schedule: Q01DX009 (ip), vehicle: saline 97 % of control | dose: 648.0 micrograms/kg/injection, schedule: Q04DX003 (ip), vehicle: saline 123 % of control | dose: 5000.0 micrograms/kg/injection, schedule: Q04DX003 (ip), vehicle: saline 111 % of control

[B]N1C(C)=CC=CC1C (stereo not drawn)
inactive: [16] 92 % of control | [1] 92 % of control | [2] 89 % of control

CCOC(=O)c1ccc(OC)nc1
inactive: [17] 104 % of control | [18] 102 % of control | [19] 98 % of control

CCS(=O)(=O)Nc1ccc(NS(=O)(=O)CC)cc1
inactive: [4] 96 % of control | [6] 100 % of control | [8] 101 % of control

O=C(O)C1C(=O)OC2CCCCC21 (stereo not drawn)
inactive: [16] 88 % of control | [1] 88 % of control | [2] 95 % of control

C=CC(=O)Nc1cccc(OC(=O)NC(C)C)c1
inactive: [13] 89 % of control | [14] 97 % of control | [15] 103 % of control

O=C1C2C(C(=O)N1c1ccc(O)cc1)C1c3ccccc3C2C2CCCCN21 (stereo not drawn)
inactive: dose: 12.5 mg/kg/injection, schedule: Q04DX003 (ip), vehicle: saline 102 % of control | dose: 25.0 mg/kg/injection, schedule: Q04DX003 (ip), vehicle: saline 103 % of control | dose: 50.0 mg/kg/injection, schedule: Q04DX003 (ip), vehicle: saline 102 % of control | [10] 100 % of control

Cc1ccc(S(=O)(=O)N=Nc2c(O)[nH]c3cc(O)c(C(=O)O)cc23)cc1
inactive: dose: 50.0 mg/kg/injection, schedule: Q04DX003 (ip), vehicle: Klucel (hydroxypropylcellulose) (HPC) 103 % of control | [5] 92 % of control | [13] 100 % of control | [7] 92 % of control and 98 % of control | [14] 110 % of control | [9] 95 % of control | [15] 110 % of control

CCCN1c2c(nc(N)[nH]c2=O)NCC1CNc1ccc(C(=O)NC(CCC(=O)O)C(=O)O)cc1 (stereo not drawn)
inactive: [17] 96 % of control | [10] 108 % of control | [18] 101 % of control | [11] 97 % of control | [19] 96 % of control | [12] 101 % of control
